Source: ChEMBL document CHEMBL3785025, “Focus on PAINS: false friends in the quest for selective anti-protozoal lead structures from Nature?” (Medchemcomm, 2016)
Values after ≈ are worked out from the molar mass of the structure shown.

Assays:
Leishmania donovani [1] = assay: Antileishmanial activity against Leishmania donovani MHOM/ET/67/HU3 after 5 days by Giemsa staining based microscopic analysis; type: functional, organism-based; details: MHOM/ET/67/HU3, 120 h
[2] = system: Trypanosoma brucei brucei; assay: Antitrypanosomal activity against Trypanosoma brucei brucei; type: functional, organism-based
Plasmodium falciparum [3] = assay: Antiplasmodial activity against chloroquine-resistant Plasmodium falciparum FcB1/Colombia after 24 hrs by [3H]hypoxanthine incorporation assay; type: functional, organism-based
L6 = assay: Cytotoxicity against rat L6 cells after 72 hrs by alamar blue staining based fluorescence analysis; type: functional, cell-based; details: L6, 72 h
Leishmania donovani [4] = assay: Antileishmanial activity against Leishmania donovani MHOM/ET/67/L82 after 72 hrs by resazurin dye based fluorescence analysis; type: functional, organism-based; details: MHOM/ET/67/L82, 72 h
[5] = system: Trypanosoma brucei rhodesiense; assay: Antitrypanosomal activity against Trypanosoma brucei rhodesiense STIB 900 after 72 hrs by alamar blue staining based fluorescence analysis; type: functional, organism-based; details: STIB 900, 72 h
Trypanosoma cruzi [6] = assay: Antitrypanosomal activity against trypomastigote forms of Trypanosoma cruzi Tulahuen C2C4 infected in rat L6 cells assessed as inhibition of growth after 96 hrs by inverted microscopy; type: functional, organism-based; details: Tulahuen C2C4, L6, 96 h
Plasmodium falciparum [7] = assay: Antimalarial activity against chloroquine and pyrimethamine-resistant Plasmodium falciparum K1 infected in human red blood cells after 48 hrs by [3H]hypoxanthine incorporation assay; type: functional, organism-based
[8] = Cytotoxicity against human U937 cells after 72 hrs by MTT assay; type: functional; details: U-937, 72 h, read-out: LD50 (the source's name)
Plasmodium falciparum [9] = assay: Antimalarial activity against chloroquine-sensitive Plasmodium falciparum 3D7 after 48 hrs by ethidium bromide staining based fluorometric method; type: functional, organism-based; details: 3D7, 48 h
Leishmania donovani [10] = assay: Antileishmanial activity against Leishmania donovani MHOM/ET/67/L82 after 72 hrs by Alamar blue dye based fluorescence analysis; type: functional, organism-based; details: MHOM/ET/67/L82, 72 h
Trypanosoma cruzi [11] = assay: Antitrypanosomal activity against trypomastigote forms of Trypanosoma cruzi Tulahuen C2C4 infected in rat L6 cells after 96 hrs by photometric method; type: functional, organism-based; details: Tulahuen C2C4, L6, 96 h
Plasma = assay: Plasma concentration in human at […], administered orally by HPLC method in presence of 20 mg piperine; type: ADME, cell-free; details: po
Trypanosoma brucei = assay: Antitrypanosomal activity against Trypanosoma brucei; type: functional, organism-based
[12] = Cytotoxicity against mouse J774.1 cells; type: cell-based
Leishmania major [13] = assay: Antileishmanial activity against Leishmania major promastigotes; type: functional; details: read-out: LD50 (the source's name)
[14] = Cytotoxicity against HEK293T cells; type: cell-based; details: Homo sapiens, HEK-293T
Plasmodium falciparum [15] = assay: Antimalarial activity against chloroquine-sensitive Plasmodium falciparum 3D7 after 24 hrs by [3H]hypoxanthine labeling method; type: functional, organism-based
Arginase-1 = biological target: T1, Arginase-1 (Rattus norvegicus, UniProt P07824); assay: Inhibition of recombinant rat liver arginase expressed without histidine tail assessed as urea formation using L-arginine as substrate after 15 mins by Berthelot assay
T1 sequence (P07824 whole entry): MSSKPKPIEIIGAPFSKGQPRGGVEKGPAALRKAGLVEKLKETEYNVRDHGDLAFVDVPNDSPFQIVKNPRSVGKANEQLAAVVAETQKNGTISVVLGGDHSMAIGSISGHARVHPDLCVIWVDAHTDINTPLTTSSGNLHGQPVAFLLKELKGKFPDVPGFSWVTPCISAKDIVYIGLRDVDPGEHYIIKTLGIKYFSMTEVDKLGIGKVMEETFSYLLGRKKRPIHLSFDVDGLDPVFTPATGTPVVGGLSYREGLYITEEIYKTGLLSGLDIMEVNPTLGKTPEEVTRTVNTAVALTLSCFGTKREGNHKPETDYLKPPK

Leishmania amazonensis [16] = assay: Antileishmanial activity against amastigote Leishmania amazonensis relative to control; type: functional
Leishmania amazonensis [17] = assay: Antileishmanial activity against amastigote Leishmania amazonensis; type: functional, organism-based
Leishmania donovani [18] = assay: Antileishmanial activity against […] Leishmania donovani MHOM/KE/85/NLB439 in human peripheral blood monocyte derived macrophages assessed as growth inhibition after 24 hrs by [3H]-thymidine incorporation assay; type: functional, organism-based
Leishmania major [19] = assay: Antileishmanial activity against promastigote Leishmania major MHOM/IL/67/LRC-L137 assessed as growth inhibition after 2 hrs by [3H]-thymidine incorporation assay; type: functional, organism-based
[20] = Cmax in Wistar rat at 50 mg/kg after 2 hrs by UPLC method; type: ADME, organism-based; parameters: dose 50 mg/kg; details: in vivo
Leishmania tropica = assay: Antileishmanial activity against Leishmania tropica MHOM/IR/2002/Mash2 assessed as cell viability after 72 hrs by MTT assay; type: functional, organism-based; details: MHOM/IR/2002/Mash2, 72 h
Leishmania infantum = assay: Antileishmanial activity against Leishmania infantum MCAN/IR/07/Moheb-gh assessed as cell viability after 72 hrs by MTT assay; type: functional, organism-based
[21] = Cmax in Wistar rat at 50 mg/kg administered as lipid nanoparticle suspension after 2 hrs by UPLC method; type: ADME, organism-based; parameters: dose 50 mg/kg; details: in vivo

## COc1ccc(CC[C@@H](C[C@H](CCc2ccc(O)c(O)c2)O[C@@H]2O[C@H](CO)[C@@H](O)[C@H](O)[C@H]2O)OC=O)cc1
Leishmania donovani [1]
  IC50: 30 µM
[2]
  IC50: 25 µM
Plasmodium falciparum [3]
  IC50: > 20 µM

## COc1ccc(CC[C@H](O)C[C@H](CCc2ccc(O)c(O)c2)O[C@@H]2O[C@H](CO)[C@@H](O)[C@H](O)[C@H]2O)cc1
Leishmania donovani [1]
  IC50: 30 µM
[2]
  IC50: > 100 µM
Plasmodium falciparum [3]
  IC50: > 20 µM

## C/C=C(\C)CO[C@@H]1CC([C@@H](O)[C@]2(C)C=C3OC(=O)C4=C3[C@H]2[C@H]2OC(=O)[C@H](C)[C@@H]2[C@H](OC/C(C)=C/C)C4)=C2C(=O)C=C(C)[C@@H]2[C@H]2OC(=O)[C@H](C)[C@@H]21
L6
  IC50: 16.2 µM
Leishmania donovani [4]
  IC50: 10.2 µM
[5]
  IC50: 6.2 µM
Trypanosoma cruzi [6]
  IC50: 30.3 µM
Plasmodium falciparum [7]
  IC50: 2 µM

## OC[C@H]1O[C@@H](O[C@@H](CCc2ccc(O)c(O)c2)C[C@@H](O)CCc2ccc(O)c(O)c2)[C@H](O)[C@@H](O)[C@@H]1O
Leishmania donovani [1]
  IC50: 30 µM
[2]
  IC50: 25 µM
Plasmodium falciparum [3]
  IC50: > 20 µM

## O=CO[C@@H](CCc1ccc(O)c(O)c1)C[C@H](CCc1ccc(O)c(O)c1)O[C@@H]1O[C@H](CO)[C@@H](O)[C@H](O)[C@H]1O
Leishmania donovani [1]
  IC50: 30 µM
[2]
  IC50: 25 µM
Plasmodium falciparum [3]
  IC50: > 20 µM

## CC(C)=CCc1c(O)c(O)c(O)c2c(=O)c3c(CC=C(C)C)c(O)c(O)cc3oc12
[8]
  CC50: 263 µM
Plasmodium falciparum [9]
  IC50: 12.4 µM

## O=c1cc(-c2ccc(O)cc2)oc2cc(O)cc(O)c12 [APIGENIN]
L6
  IC50: 18.1 µg/mL
[5]
  IC50: 5.1 µg/mL
Leishmania donovani [10]
  IC50: 1.9 µg/mL (≈ 7.03 µM)
Trypanosoma cruzi [11]
  IC50: 21.8 µg/mL (≈ 80.7 µM)

## COc1cc(/C=C/C(=O)CC(=O)/C=C/c2ccc(O)c(OC)c2)ccc1O [CURCUMIN]
[2]; read-out: LD50 (the source's name)
  LC50: 46.5 µM
Plasma
  Cp: 180 ng/mL
Trypanosoma brucei
  IC50: 3.6 µM
[12]
  IC50: 31 µM
Leishmania major [13]
  LC50: 37.6 µM
[14]
  IC50: 15.2 µM
Plasmodium falciparum [15]
  IC50: 25 µM

## O=c1c(O)c(-c2ccc(O)c(O)c2)oc2cc(O)ccc12 [FISETIN]
L6
  IC50: 38.5 µg/mL
[5]
  IC50: 3.3 µg/mL
Leishmania donovani [10]
  IC50: 0.6 µg/mL (≈ 2.1 µM)
Trypanosoma cruzi [11]
  IC50: > 30 µg/mL
Arginase-1
  IC50: 1.4 µM

## O=c1c(O[C@@H]2O[C@H](CO)[C@@H](O)[C@H](O)[C@H]2O)c(-c2ccc(O)c(O)c2)oc2cc(O)cc(O)c12 [ISOQUERCETIN]
Leishmania amazonensis [16]
  Activity: 40%
Leishmania amazonensis [17]
  IC50: 0.78 µg/mL (≈ 1.68 µM)

## C=CC(C)(C)c1cc(/C=C/C(=O)c2ccc(O)cc2)c(OC)cc1O [LICOAGROCHACONE A]
Leishmania donovani [18]
  IC50: 0.9 µM
Leishmania major [19]
  IC50: 7.2 µM

## O=c1cc(-c2ccc(O)c(O)c2)oc2cc(O)cc(O)c12 [LUTEOLIN]
L6
  IC50: 9.4 µg/mL
[5]
  IC50: 3.7 µg/mL
Leishmania donovani [10]
  IC50: 0.8 µg/mL (≈ 2.79 µM)
Trypanosoma cruzi [11]
  IC50: 21.4 µg/mL (≈ 74.8 µM)
Arginase-1
  IC50: 9 µM

## O=c1c(O)c(-c2ccc(O)c(O)c2)oc2cc(O)cc(O)c12 [QUERCETIN]
[5]
  IC50: 8.3 µg/mL
Leishmania donovani [10]
  IC50: 1 µg/mL (≈ 3.31 µM)
Trypanosoma cruzi [11]
  IC50: > 30 µg/mL

## C[C@@H]1O[C@@H](Oc2c(-c3ccc(O)c(O)c3)oc3cc(O)cc(O)c3c2=O)[C@H](O)[C@H](O)[C@H]1O [QUERCITRIN]
L6
  IC50: > 90 µg/mL
[5]
  IC50: 27.9 µg/mL
Leishmania donovani [10]
  IC50: 17.7 µg/mL (≈ 39.5 µM)
Trypanosoma cruzi [11]
  IC50: > 30 µg/mL

## CC1=CC(=O)C(C(C)C)=CC1=O [THYMOQUINONE]
[20]
  Cmax: 400 ng/mL
Leishmania tropica
  IC50: 1.16 µg/mL (≈ 7.06 µM)
Leishmania infantum
  IC50: 1.47 µg/mL (≈ 8.95 µM)
[21]
  Cmax: 900 ng/mL
